Results taken from patent US20140135359A1, “METHODS OF DESIGNING, PREPARING, AND USING NOVEL PROTONOPHORES” (priority 2012, published 2014).
Entries after “also recorded” stand apart in the source; their conditions may differ. Like-named read-outs stand apart in the source and are kept apart here.

Key:
[1] = system: isolated rat liver mitochondria; test: Uncoupling activity: increase in basal (state 4) oxygen consumption by oxygraphy; assay type: biochemical; conditions: for Measured Uncoupling (% uncoupling ± SEM @ 100 μM): Table 1A, relative to ADP-stimulated respiration = 100%; for slope of the linear portion of the concentration-to-activity relationship: logarithmic scales
[2] = system: isolated rat liver mitochondria; test: Residual functional capacity / inhibitory effect on ADP-stimulated (state 3) oxygen consumption; assay type: biochemical; conditions: for inhibition of ADP-stimulated oxygen consumption: screening at 100 μM
[3] = Suppl. Table 1, 100 μM, 2-3 mitochondrial preparations
[4] = test conc. 25 μM, increase in basal (state 4) oxygen consumption as % of average ADP-stimulated (state 3) rate in vehicle-treated mitochondria
[5] = test conc. 100 μM, increase in basal (state 4) oxygen consumption as % of average ADP-stimulated (state 3) rate in vehicle-treated mitochondria
[6] = test conc. 25 μM, functional capacity (state 3 minus state 4 rate) as % of vehicle-treated mitochondria
[7] = test conc. 100 μM, functional capacity (state 3 minus state 4 rate) as % of vehicle-treated mitochondria

Structure (SMILES) | Measured Uncoupling Activity (% uncoupling ± SEM @ 100 μM) [1, 3] [% uncoupling] | Uncoupling (%) [1, 4] [%] | Uncoupling (%) [1, 5] [%] | Inhibitory effect (%) ([2]; test conc. 25 μM) | Residual capacity (%) [2, 6] [%] | Inhibitory effect (%) ([2]; test conc. 100 μM) | Residual capacity (%) [2, 7] [%] | further results
COc1ccc(C2CC(=O)c3c(O)cc(O)cc3O2)cc1O (racemic) [(±) hesperetin, hesperetin] | 5 ± 1 | 1 ± 1 | 5 ± 1 | 8 | 91 ± 8 | 14 | 81 ± 2 | 
O=C1C[C@@H](c2ccc(O)cc2)Oc2cc(O)cc(O)c21 (racemic) [(±) naringenin, naringenin] | 4 ± 2 |  | 4 ± 2 |  |  | 31 | 65 ± 7 | 
Oc1cc(O)c2c(c1)OC(c1ccc(O)c(O)c1)C(O)C2 (single isomer, unassigned; (+)) [(+) catechin, catechin] | −2 ± 0 |  | −2 ± 0 |  |  | 2 | 98 ± 5 | 
CC(=O)c1ccc(O)cc1 [4-acetylphenol] | 0 ± 0 |  | 0 ± 0 |  |  | 13 | 87 ± 1 | uncoupling activity ([1]; 100 μM, result in words): lack of activity
O=C(/C=C/c1ccccc1)c1ccc(O)cc1 [4′-hydroxychalcone] | 74 ± 14 | 13 ± 2 | 74 ± 14 | 7 | 80 ± 2 | 0 | 26 ± 19 | Measured Uncoupling (% uncoupling ± SEM @ 100 μM) ([1]; 100 μM): 74 ± 14 % uncoupling
O=c1ccoc2cc(O)ccc12 [7-hydroxychromone] | 0 ± 0 |  | 0 ± 0 |  |  | 14 | 86 ± 2 | uncoupling activity ([1]; 100 μM, result in words): no appreciable activity; also recorded: lack of activity
O=C1c2ccccc2C(=O)c2ccccc21 [anthraquinone] | −1 ± 1 |  | −1 ± 1 |  |  | 15 | 85 ± 21 | uncoupling activity ([1]; 100 μM, result in words): inactive
O=c1cc(-c2ccc(O)cc2)oc2cc(O)cc(O)c12 [apigenin] | 19 ± 3 | 9 ± 1 | 19 ± 3 | 28 | 63 ± 9 | 44 | 37 ± 8 | 
O=C(O)c1ccccc1 [benzoic acid] |  |  |  |  |  |  |  | Measured Uncoupling Activity (% uncoupling ± SEM @ 100 μM) [1]: 0 ± 1 % uncoupling; Uncoupling (%) [1]: 0 ± 1%; Inhibitory effect (%) [2]: 4%; Residual capacity (%) [2]: 96 ± 3%
COc1ccc(-c2coc3cc(O)cc(O)c3c2=O)cc1 [biochanin A] | 103 ± 22 | 75 ± 36 | 103 ± 22 | 0 | 27 ± 27 | 0 | 0 ± 0 | uncoupling activity ([1]; 100 μM, result in words): complete uncoupling; Measured Uncoupling (% uncoupling ± SEM @ 100 μM) ([1]; 100 μM): >100 % uncoupling
O=C(/C=C/c1ccc(O)c(O)c1)OCCc1ccccc1 [caffeic acid phenethyl ester] |  | 56 ± 13 | 57 ± 35 | 5 | 39 ± 12 | 43 | 0 ± 0 | 
O=C(O)/C=C/c1ccc(O)c(O)c1 [caffeic acid] | 0 ± 1 |  | 0 ± 1 |  |  | 21 | 79 ± 9 | 
Cc1ccc(C(C)C)cc1O [carvacrol] | 7 ± 2 |  | 7 ± 2 |  |  | 10 | 83 ± 2 | 
Oc1ccccc1O [catechol] | 0 ± 0 |  | 0 ± 0 |  |  | 12 | 88 ± 1 | 
O=c1cc(-c2ccc(O)cc2)oc2c(-c3c(O)cc(O)c4c(=O)cc(-c5ccc(O)cc5)oc34)c(O)cc(O)c12 [cupressuflavone] | −2 ± 0 |  | −2 ± 0 |  |  | 5 | 95 ± 4 | 
O=c1c(-c2ccc(O)cc2)coc2cc(O)ccc12 [daidzein] | 6 ± 1 | 3 ± 1 | 6 ± 1 | 19 | 78 ± 5 | 26 | 68 ± 4 | 
O=c1c(O)c(-c2ccccc2O)oc2cc(O)cc(O)c12 [datiscetin] | 33 ± 3 | 15 ± 2 | 33 ± 3 | 33 | 52 ± 9 | 67 | 0 ± 0 | uncoupling potency compared with 2,4-dinitrophenol ([1]; dose-escalation): potency on the order of that of 2,4-dinitrophenol; slope of the linear portion of the concentration-to-activity relationship ([1]; dose-escalation): 0.44; inhibition of ADP-stimulated oxygen consumption [2]: inhibitory activity
O=C(O[C@@H]1Cc2c(O)cc(O)cc2O[C@@H]1c1cc(O)c(O)c(O)c1)c1cc(O)c(O)c(O)c1 [epigallocatechin gallate] |  |  |  |  |  |  |  | uncoupling activity ([1]; 100 μM, result in words): devoid of activity
COc1cc(/C=C/C(=O)O)ccc1O [ferulic acid] | −1 ± 1 |  | −1 ± 1 |  |  | 9 | 91 ± 9 | 
O=c1cc(-c2ccccc2)oc2ccccc12 [flavone] | −1 ± 2 |  | −1 ± 2 |  |  | 25 | 75 ± 13 | uncoupling activity ([1]; 100 μM, result in words): inactive
Cc1cc(O)c2c(c1)C(=O)c1cc(O)cc(O)c1C2=O [frangulic acid] | 78 ± 14 | 59 ± 16 | 78 ± 14 | 41 | 0 ± 0 | 22 | 0 ± 0 | Measured Uncoupling (% uncoupling ± SEM @ 100 μM) ([1]; 100 μM): 78 ± 14 % uncoupling; uncoupling potency compared with 2,4-dinitrophenol ([1]; dose-escalation): potency on the order of that of 2,4-dinitrophenol; maximal inducible uncoupling ([1]; dose-escalation, 100 μM or below): complete uncoupling
O=c1c(O)c(-c2ccccc2)oc2cc(O)cc(O)c12 [galangin] | 95 ± 9 | 102 ± 3 | 95 ± 9 | 0 | 2 ± 2 | 5 | 0 ± 0 | uncoupling activity ([1]; 25 μM): complete uncoupling; Measured Uncoupling (% uncoupling ± SEM @ 100 μM) ([1]; 100 μM): 95 ± 9 % uncoupling; uncoupling potency compared with 2,4-dinitrophenol ([1]; dose-escalation): potency on the order of that of 2,4-dinitrophenol; slope of the linear portion of the concentration-to-activity relationship ([1]; dose-escalation): 1.39
CC(=O)c1ccc(O)cc1 [para-acetylphenol] |  |  |  |  |  |  |  | uncoupling activity ([1]; 100 μM, result in words): no appreciable activity
Oc1ccc(C=Cc2cc(O)cc(O)c2)cc1 [resveratrol] |  |  |  |  |  |  |  | inhibition of ADP-stimulated oxygen consumption [2]: inhibitory activity
C(=Cc1ccccc1)c1ccccc1 [stilbene] |  |  |  |  |  |  |  | uncoupling activity ([1]; 100 μM, result in words): inactive
Oc1cc(O)cc(/C=C/c2ccc(O)c(O)c2)c1 [trans-piceatannol] | 5 ± 1 |  |  |  |  |  |  | 
Oc1ccc(/C=C/c2cc(O)cc(O)c2)cc1 [trans-resveratrol] | 2 ± 0 |  |  |  |  |  |  | 
C(=C\c1ccccc1)/c1ccccc1 [trans-stilbene] | −1 ± 1 |  |  |  |  |  |  | 
